The text below walks through data of patent publication US20100249064A1, “METHODS AND COMPOSITIONS FOR TREATING DISEASES AND CONDITIONS INVOLVING HIGHER MOLECULAR WEIGHT HYALURONAN” (University of Chicago, priority 2007, published 2010).

The test system of one experiment is MARCKS and NHE1. Nature of the experiment: LPS-induced phosphorylation of MARCKS and NHE1 (immunoprecipitation/immunoblot). The following applies: LPS 1 μg/ml, 4 hours, HMW-HA 100 nM or Y-27632 500 nM. The class given is cell-based, human. On the technique in general: A western blot detects proteins with antibodies after separation by electrophoresis.
The test system of the next experiment is CD44. As to the kind of experiment: CD44 expression in mouse lung homogenates (immunoblot). The class given is in vivo. Here is the method: Animal Preparation and Treatment. Male C57BL/6J, B6129N2, CD44^−/− or caveolin-1^−/− mice (8-10 weeks, Jackson Laboratories, Bar Harbor, Me.) were anesthetized with intraperitoneal ketamine (150 mg/kg) and acetylpromazine (15 mg/kg) before exposure of the right internal jugular vein via neck incision. LPS (2.5 mg/kg) or water (control) were instilled intratracheally. Four hours later, mice receive high MW HA (1.5 mg/kg) or water control through the internal jugular vein. The animals were allowed to recover for 24 hours after LPS before bronchioalveolar lavage protein and cytokine concentration and/or lung immunohistochemistry/immunoblot analysis (Peng et al., 2004).
Immunoblot analysis of CD44 and Caveolin-1 expression in control, LPS- and HA-treated mouse lung homogenates. CD44 is highly likely to be important in lung disease as CD44−/− mice develop lung fibrosis, inflammatory cell recruitment and accumulation of hyaluronan fragments at sites of lung injury (Teder et al., 2002). […] Caveolin-1 can be differentially regulated in various models of acute lung injury (ALI). Monocrotaline-induced rodent pulmonary hypertension results in a loss of lung EC caveolin-1 expression (Mathew et al., 2004). In contrast, there is no change in pulmonary caveolin-1 expression in lipopolyscaaharide (LPS)-induced sepsis with lung injury (Garrean et al., 2006). […]

As for hyaluronan [HMW-HA], in the experiment with MARCKS and NHE1, the “LPS-induced phosphorylation of MARCKS and NHE1” value is “inhibit LPS-induced phosphorylation of MARCKS and NHE1”. The “LPS-induced CD44 upregulation in mouse lungs” value with CD44 (C57BL/6J mice, LPS challenged followed by HMW-HA) is “inhibited LPS-induced CD44 upregulation”. The “CD44 expression in mouse lungs” value in the experiment on CD44 (HMW-HA alone) is on record as “no effect on CD44 expression”.
